Laboratory results taken from patent publication US10881653B2, “Tricyclic compounds and their use in the treatment of cancer” (The United States of America, as represented by the …, priority 2015, dated 2021).
Counter-ions that a name gives are not always drawn.

Columns and labels:
Test in all cases: Cell growth inhibition GI50
Type in all cases: cell-based
786-0 = conditions: Homo sapiens, Renal Cancer
Experimental: (§1) Cell lines were plated 2000 cells/well in 96-well black optical plates in the presence of 10% FBS media containing 25 nM selenite. The following day cells were treated with various concentrations of the compound of Example 1 (0.1% DMSO final) and incubated for 72 hrs. After the incubation Cell-Quanti Blue reagent was added to each well and incubated for additional 3 hrs. Fluorescence was read ex:530 nm/em:590 nm, and percent of viability was determined using DMSO vehicle and no cell (blank) controls.
(§2) Further results obtained in similar experiments were as indicated below (GI50 refers to concentration of compound yielding 50% growth inhibition; E denotes an exponent to the base 10).

A498 = conditions: Homo sapiens, Renal Cancer
Experimental: as §1, §2

A549/ATCC = conditions: Homo sapiens, Non-Small Cell Lung Cancer
Experimental: as §1, §2

ACHN = conditions: Homo sapiens, Renal Cancer
Experimental: as §1, §2

BT-549 = conditions: Homo sapiens, Breast Cancer
Experimental: as §1, §2

CCRF-CEM = conditions: Homo sapiens, Leukemia
Experimental: as §1, §2

COLO 205 = conditions: Homo sapiens, Colon Cancer
Experimental: as §1, §2

DU-145 = conditions: Homo sapiens, Prostate Cancer
Experimental: as §1, §2

EKVX = conditions: Homo sapiens, Non-Small Cell Lung Cancer
Experimental: as §1, §2

HCC-2998 = conditions: Homo sapiens, Colon Cancer
Experimental: as §1, §2

HCT-116 = conditions: Homo sapiens, Colon Cancer
Experimental: as §1, §2

HCT-15 = conditions: Homo sapiens, Colon Cancer
Experimental: as §1, §2

HL-60(TB) = conditions: Homo sapiens, Leukemia
Experimental: as §1, §2

HOP-62 = conditions: Homo sapiens, Non-Small Cell Lung Cancer
Experimental: as §1, §2

HOP-92 = conditions: Homo sapiens, Non-Small Cell Lung Cancer
Experimental: as §1, §2

HS 5781 = conditions: Breast Cancer
Experimental: as §1, §2

HT29 = conditions: Homo sapiens, HT-29, Colon Cancer
Experimental: as §1, §2

IGROV1 = conditions: Homo sapiens, IGROV-1, Ovarian Cancer
Experimental: as §1, §2

KM12 = conditions: Homo sapiens, Colon Cancer
Experimental: as §1, §2

M14 = conditions: Homo sapiens, Melanoma
Experimental: as §1, §2

MALME-3M = conditions: Homo sapiens, Melanoma
Experimental: as §1, §2

MCF7 = conditions: Homo sapiens, Breast Cancer
Experimental: as §1, §2

MDA-MB-231/ATCC = conditions: Homo sapiens, Breast Cancer
Experimental: as §1, §2

MDA-MB-435 = conditions: Homo sapiens, Melanoma
Experimental: as §1, §2

MDA-N = conditions: Homo sapiens, Melanoma
Experimental: as §1, §2

MOLT-4 = conditions: Homo sapiens, Leukemia
Experimental: as §1, §2

NCI-H226 = conditions: Homo sapiens, Non-Small Cell Lung Cancer
Experimental: as §1, §2

NCI-H23 = conditions: Homo sapiens, Non-Small Cell Lung Cancer
Experimental: as §1, §2

NCI-H322M = conditions: Homo sapiens, Non-Small Cell Lung Cancer
Experimental: as §1, §2

NCI-H522 = conditions: Homo sapiens, Non-Small Cell Lung Cancer
Experimental: as §1, §2

NCI/ADR-RES = conditions: Homo sapiens, Ovarian Cancer
Experimental: as §1, §2

OVCAR-4 = conditions: Homo sapiens, Ovarian Cancer
Experimental: as §1, §2

OVCAR-5 = conditions: Homo sapiens, Ovarian Cancer
Experimental: as §1, §2

OVCAR-8 = conditions: Homo sapiens, Ovarian Cancer
Experimental: as §1, §2

PC-3 = conditions: Homo sapiens, Prostate Cancer
Experimental: as §1, §2

RXF 393 = conditions: Homo sapiens, Renal Cancer
Experimental: as §1, §2

SF-268 = conditions: Homo sapiens, CNS Cancer
Experimental: as §1, §2

SF-295 = conditions: Homo sapiens, CNS Cancer
Experimental: as §1, §2

SF-539 = conditions: Homo sapiens, CNS Cancer
Experimental: as §1, §2

SK-MEL-2 = conditions: Homo sapiens, Melanoma
Experimental: as §1, §2

SK-OV-3 = conditions: Homo sapiens, Ovarian Cancer
Experimental: as §1, §2

SN12C = conditions: Homo sapiens, Renal Cancer
Experimental: as §1, §2

SNB-19 = conditions: Homo sapiens, CNS Cancer
Experimental: as §1, §2

SR = conditions: Homo sapiens, Leukemia
Experimental: as §1, §2

T-47D = conditions: Homo sapiens, T47D, Breast Cancer
Experimental: as §1, §2

TK-10 = conditions: Homo sapiens, Renal Cancer
Experimental: as §1, §2

U251 = conditions: Homo sapiens, U-251, CNS Cancer
Experimental: as §1, §2

UACC-257 = conditions: Homo sapiens, Melanoma
Experimental: as §1, §2

UACC-62 = conditions: Homo sapiens, Melanoma
Experimental: as §1, §2

UO-31 = conditions: Homo sapiens, Renal Cancer
Experimental: as §1, §2

`O=C1C=C[C@H]2[C@@H]3C(=O)N(c4ccccc4)C(=O)[C@@H]3[C@@H]1N2Cc1ccccc1` (relative stereo) [Example 1, exo-11-Benzyl-4-phenyl-4,11-diazatricyclo[5.3.1.0^2,6]undec-9-ene-3,5,8-trione Trifluoroacetate] showed a GI50 (786-0) of 1690 nM, a GI50 (A498) of 8.57 µM and a GI50 (A549/ATCC) of 14.9 µM. For the same molecule, the GI50 (ACHN) was 3.36 µM, the GI50 (BT-549) was 3.45 µM and the GI50 (CCRF-CEM) was 942 nM. The GI50 (COLO 205) was 5.47 µM, the GI50 (DU-145) was 9.66 µM and the GI50 (EKVX) was 7.78 µM. For the same molecule, the GI50 (HCC-2998) was 7.94 µM, the GI50 (HCT-116) was 1560 nM and the GI50 (HCT-15) was 1740 nM. It also gave a GI50 (HL-60(TB)) of 1170 nM, a GI50 (HOP-62) of 1380 nM and a GI50 (HOP-92) of 3.66 µM. It also gave a GI50 (HS 5781) of 3.51 µM, a GI50 (HT29) of 1790 nM and a GI50 (IGROV1) of 4.81 µM. The GI50 (KM12) was 2560 nM, the GI50 (M14) was 2600 nM and the GI50 (MALME-3M) was 4.62 µM. The GI50 (MCF7) was 3.19 µM, the GI50 (MDA-MB-231/ATCC) was 5.45 µM and the GI50 (MDA-MB-435) was 2720 nM. The GI50 (MDA-N) was 3.14 µM, the GI50 (MOLT-4) was 1720 nM and the GI50 (NCI-H226) was 7.26 µM. It also gave a GI50 (NCI-H23) of 5.37 µM, a GI50 (NCI-H322M) of 10.2 µM and a GI50 (NCI-H522) of 2680 nM. It also gave a GI50 (NCI/ADR-RES) of 2550 nM, a GI50 (OVCAR-4) of 5.53 µM and a GI50 (OVCAR-5) of 6.75 µM. The GI50 (OVCAR-8) was 2880 nM, the GI50 (PC-3) was 4.68 µM and the GI50 (RXF 393) was 2420 nM. It also gave a GI50 (SF-268) of 3.34 µM, a GI50 (SF-295) of 6.41 µM and a GI50 (SF-539) of 1660 nM. The GI50 (SK-MEL-2) was 4.37 µM, the GI50 (SK-OV-3) was 13.2 µM and the GI50 (SN12C) was 1640 nM. For the same molecule, the GI50 (SNB-19) was 6.04 µM, the GI50 (SR) was 1870 nM and the GI50 (T-47D) was 4.92 µM. For the same molecule, the GI50 (TK-10) was 8.07 µM, the GI50 (U251) was 2290 nM and the GI50 (UACC-257) was 3.22 µM. For the same molecule, the GI50 (UACC-62) was 2010 nM and the GI50 (UO-31) was 3.42 µM.
